Here are results for 13 compounds from ChEMBL document CHEMBL1131850, “The synthesis and anti-MRSA activity of amidinium-substituted 2-dibenzofuranylcarbapenems” (1999).

One experiment has as its system Staphylococcus aureus. Kind of experiment: Compound was tested in vitro for its activity against methicillin-Resistant Staphylococcus Aureus(MRSA 12). The experiment is classed as functional.
A short description of experiment [1]: Compound was tested in vitro for its activity against Methicillin-Resistant Coagulase Negative Staphylococci(MRCNS 9). The experiment is classed as functional. Particulars: Staphylococcus.
Experiment [2] relates to Mus musculus. Kind of experiment: Compound was evaluated in vivo for plasma MIC in presence of human albumin fraction V (21.5 mg/mL). The experiment is classed as functional, organism-based.
For experiment [3], the species on record is Mus musculus. Briefly: Effective dose against Staphylococcus aureus MB2985 (methicillin-susceptible) in mouse systemic infection model. The format is functional.
Experiment [4] can be described thus: Compound was evaluated in vivo for percent binding to human albumin fraction V. The format is functional, organism-based.
Experiment [5] in a line: In vivo inhibitory activity against Staphylococcus aureus MB2985 (methicillin-susceptible) in mouse systemic infection model. The format is functional.
For experiment [6], the species on record is Mus musculus. Briefly: Plasma MIC against staphylococcus aureus infection in mice in presence of human albumin fraction V (21.5 mg/mL). The experiment is classed as functional, organism-based.
The test system of experiment [7] is Mus musculus. Kind of experiment: Compound was evaluated in vivo for percent binding to human albumin fraction V. The format is functional, organism-based.

Structures are written as SMILES. Values after ≈ are worked out from the molar mass of the structure shown. Bounds are passed on as bounds.

Broadly, the MIC50 is the lowest concentration that inhibits either 50% of growth or 50% of the strains tested, depending on the study. What is called MIC90 is an inhibitory concentration at the 90% level, which refers to growth in some studies and to a panel of isolates in others. Lower therefore signals greater potency. By ED50 is commonly meant the dose at which the effect has come halfway, by size or by number of responders. The low end stands for greater potency, the high end for weaker potency. In general, MIC refers to the least concentration at which growth counts as inhibited.

In the experiment on Staphylococcus aureus, `C[C@@H](O)[C@H]1C(=O)N2C(C(=O)O)=C(c3cc(C4=NCCCN4)c4oc5ccccc5c4c3)C[C@H]12` displayed an MIC50 of 1 µg/mL (≈ 2.24 µM) and an MIC90 of 2 µg/mL (≈ 4.49 µM). In experiment [1], this compound had an MIC50 of 2 µg/mL (≈ 4.49 µM) and an MIC90 of 4 µg/mL (≈ 8.98 µM).

`C[C@@H](O)[C@H]1C(=O)N2C(C(=O)O)=C(c3cc(C(N)=O)c4oc5ccccc5c4c3)C[C@H]12`: the Plasma MIC with Mus musculus [2] stood at 1 µg/mL. Further, in the experiment on Staphylococcus aureus, the MIC50 was 0.5 µg/mL (≈ 1.23 µM) and the MIC90 came out at 1 µg/mL (≈ 2.46 µM). In experiment [1], the MIC50 stood at 2 µg/mL (≈ 4.92 µM) and the MIC90 worked out at 2 µg/mL (≈ 4.92 µM). Further, the ED50 in the experiment listed under Mus musculus [3] turned out to be 0.55 mg/kg. Moreover, the PPB in experiment [4] came to 95%. The same compound had an MIC in experiment [5] of 0.031 µg/mL (≈ 0.0763 µM).

With `CN[C@H](CC(C)C)C(=O)N[C@H]1C(=O)N[C@@H](CC(N)=O)C(=O)N[C@H]2C(=O)N[C@H]3C(=O)N[C@H](C(=O)N[C@H](C(=O)O)c4cc(O)cc(O)c4-c4cc3ccc4O)[C@H](O)c3ccc(c(Cl)c3)Oc3cc2cc(c3O[C@@H]2O[C@H](CO)[C@@H](O)[C@H](O)[C@H]2O[C@H]2C[C@](C)(N)[C@H](O)[C@H](C)O2)Oc2ccc(cc2Cl)[C@H]1O` [VANCOMYCIN], in the experiment on Staphylococcus aureus, the MIC50 is 1 µg/mL (≈ 0.69 µM) and the MIC90 was 2 µg/mL (≈ 1.38 µM). In experiment [1], this compound showed an MIC50 of 4 µg/mL (≈ 2.76 µM) and an MIC90 of 8 µg/mL (≈ 5.52 µM).

As to `C[C@@H](O)[C@H]1C(=O)N2C(C(=O)O)=C(c3cc(C4=NCCN4)c4oc5ccccc5c4c3)C[C@H]12`, the Plasma MIC in the experiment listed under Mus musculus [6] was found to be 0.063 µg/mL. Further, the MIC50 (against Staphylococcus aureus; in experiment [1]) was 1 µg/mL (≈ 2.32 µM) each time. Also, the MIC90 (against Staphylococcus aureus; in experiment [1]) was 1 µg/mL (≈ 2.32 µM) each time. In the experiment filed under Mus musculus [3], this compound yielded an ED50 of 0.135 mg/kg. In experiment [4], this compound came in with a PPB of 34%. The same compound showed an MIC in experiment [5] not above 0.016 µg/mL.

Consider `C[C@@H](O)[C@H]1C(=O)N2C(C(=O)[O-])=C(c3cc(-c4n(C)cc[n+]4C)c4oc5ccccc5c4c3)C[C@H]12`, for which, in the experiment on Staphylococcus aureus, the MIC50 turned out to be 4 µg/mL (≈ 8.74 µM) and the MIC90 came out at 8 µg/mL (≈ 17.5 µM). In experiment [1], this compound displayed an MIC50 of 8 µg/mL (≈ 17.5 µM) and an MIC90 of 16 µg/mL (≈ 35 µM).

In the experiment on Staphylococcus aureus, `C[C@@H](O)[C@H]1C(=O)N2C(C(=O)O)=C(c3cc(C(=N)N(C)C)c4oc5ccccc5c4c3)C[C@H]12` showed an MIC50 of 2 µg/mL (≈ 4.61 µM) and an MIC90 of 8 µg/mL (≈ 18.5 µM). In experiment [1], the MIC50 came out at 4 µg/mL (≈ 9.23 µM) and the MIC90 came out at 8 µg/mL (≈ 18.5 µM).

For the compound `C[C@@H](O)[C@H]1C(=O)N2C(C(=O)O)=C(c3cc(C(=N)N)c4oc5ccccc5c4c3)C[C@H]12`, the Plasma MIC in the experiment listed under Mus musculus [6] came to 0.031 µg/mL. The MIC50 (with Staphylococcus aureus; in experiment [1]) was 1 µg/mL (≈ 2.47 µM) each time. Also, the MIC90 (in the experiment on Staphylococcus aureus; in experiment [1]) was 2 µg/mL (≈ 4.93 µM) throughout. Also, the ED50 in the experiment listed under Mus musculus [3] is less than 0.096 mg/kg. The PPB in experiment [4] worked out at 71%. In experiment [5], this compound displayed an MIC of 0.031 µg/mL (≈ 0.0765 µM).

In the experiment with Staphylococcus aureus, `C[C@@H](O)[C@H]1C(=O)N2C(C(=O)O)=C(c3cc(C4=NCCN4C)c4oc5ccccc5c4c3)C[C@H]12` showed an MIC50 of 2 µg/mL (≈ 4.49 µM) and an MIC90 of 4 µg/mL (≈ 8.98 µM). In experiment [1], this compound yielded an MIC50 of 2 µg/mL (≈ 4.49 µM) and an MIC90 of 4 µg/mL (≈ 8.98 µM).

Regarding `C[C@@H](O)[C@H]1C(=O)N2C(C(=O)O)=C(c3ccc4oc5ccccc5c4c3)C[C@H]12`, in the experiment on Staphylococcus aureus, the MIC50 stood at 2 µg/mL (≈ 5.5 µM) and the MIC90 was determined as 4 µg/mL (≈ 11 µM). In experiment [1], this compound displayed an MIC50 of 4 µg/mL (≈ 11 µM) and an MIC90 of 8 µg/mL (≈ 22 µM).

Consider `CNC(=N)c1cc(C2=C(C(=O)O)N3C(=O)[C@H]([C@@H](C)O)[C@H]3C2)cc2c1oc1ccccc12`, for which, in the experiment with Staphylococcus aureus, the MIC50 worked out at 1 µg/mL (≈ 2.38 µM) and the MIC90 stood at 4 µg/mL (≈ 9.54 µM). In experiment [1], this compound had an MIC50 of 2 µg/mL (≈ 4.77 µM) and an MIC90 of 2 µg/mL (≈ 4.77 µM).

`C[C@@H](O)[C@H]1C(=O)N2C(C(=O)[O-])=C(c3cc(C4=[N+](C)CCN4C)c4oc5ccccc5c4c3)C[C@H]12`: in the experiment with Staphylococcus aureus, the MIC50 stood at 8 µg/mL (≈ 17.4 µM) and the MIC90 is 32 µg/mL (≈ 69.6 µM). Further, in experiment [1], the MIC50 is 16 µg/mL (≈ 34.8 µM) and the MIC90 stood at 32 µg/mL (≈ 69.6 µM).

Regarding `C[C@@H](O)[C@H]1C(=O)N2C(C(=O)O)=C(SCCNC=N)C[C@H]12` [IMIPENEM ANHYDROUS], in the experiment listed under Mus musculus [6], the Plasma MIC amounted to 0.014 µg/mL. In the experiment with Staphylococcus aureus, this compound came in with an MIC50 of 32 µg/mL (≈ 107 µM) and an MIC90 of 128 µg/mL (≈ 428 µM). In experiment [1], the MIC50 was more than 128 µg/mL and the MIC90 was more than 128 µg/mL. The compound further showed an ED50 in the experiment listed under Mus musculus [3] of 0.026 mg/kg. Besides, in experiment [4], the PPB is less than 5%. This compound also returned an MIC in experiment [5] of 0.01 µg/mL (≈ 0.0334 µM).

On to `C[C@@H](O)[C@H]1C(=O)N2C(C(=O)O)=C(c3cc(C#N)c4oc5ccccc5c4c3)C[C@H]12`, for which the Plasma MIC in the experiment on Mus musculus [2] was more than 32 µg/mL. Further, the PPB in the experiment on Mus musculus [7] was found to be 98%. For the same compound, the figures for the MIC50 (in the experiment on Staphylococcus aureus; in experiment [1]) were 0.5 µg/mL (≈ 1.29 µM) and 1 µg/mL (≈ 2.57 µM), respectively. Further, the MIC90 (in the experiment with Staphylococcus aureus; in experiment [1]) was 1 µg/mL (≈ 2.57 µM) throughout. It took a dose of 1.44 mg/kg to reach the 50% effect level in the experiment listed under Mus musculus [3] (ED50). This compound also displayed an MIC in experiment [5] of less than 0.016 µg/mL.
